# Data taken from patent publication US5491166A, “Inhibitors of HIV protease useful for the treatment of AIDS” (Eli Lilly and Company, priority 1992, dated 1996).
# Target: T1, HIV-1 protease (Human immunodeficiency virus type 1 group M subtype B, UniProt P04585)
# T1 construct: Purified HIV-1 protease was obtained as described above; made in house; host or cells: E. coli K12 L507/pHP10D
# Experiment: biochemical
# Conditions: All values normalized to a positive control; 1 h pre-incubation, 16 h with substrate at room temperature; *concentration of the compound was not increased above the reported concentration
# Protocol: A culture of E. coli K12 L507/pHP10D was grown to mid-log phase at 32° C. in LB media containing 12.5 μg/ml tetracycline. The cultivation temperature was quickly elevated to 40° C. to induce gene expression, and the cells were allowed to grow for 2.5 hours at this temperature before the culture was quickly chilled on ice. The cells were centrifuged and the cell pellet was resuspended in 20 mL 50 mmol MES buffer (pH 6.0) containing 1 mmol EDTA, 1 mmol DTT, 1 mmol PMSF and 10% glycerol ("Buffer A"). Cells were lysed by sonication using a Fischer Model 300 Dismembrator and a microtip probe. Following centrifugation at 27,000×g, the supernatant was diluted to a total volume of 60 mL with Buffer A and loaded onto a 2.0×19 cm QAE-Sepharose column (1 mL/min, 4° C.), that had been equilibrated in Buffer A. The column was washed isocratically for 180 min and then eluted with a gradient eluent of 0-1.0M sodium chloride in Buffer A over 120 min. Enzymatic activity was measured by HPLC using the synthetic peptide SQNYPIV as described in Margolin et al., Biochem, Biophys. Res. Commun., 167, 554-560 (1990); the production of the p1 peptide (SQNY) was measured.
# The active fractions were combined, made 1.2M in ammonium sulfate, and applied to a 2.0×18 cm hexyl agarose column that had been equilibrated in Buffer A containing 1.2M ammonium sulfate. The sample was loaded at a flow rate of 1 mL/min at 4° C., washed with the equilibration buffer for 240 min (1 mL/min) and then eluted using a reverse linear gradient of 1.2-0M ammonium sulfate in Buffer A for 120 min at the same flow rate. The column was then washed isocratically in Buffer A for 120 min.
# The active fractions were combined, concentrated to 10 mL using an Amicon stirred cell with a YM-10 membrane and then applied to a MonoS cation exchange column (1.0×10 cm) that had been equilibrated in Buffer A. The sample was loaded at a flow rate of 1 mL/min at 25° C. After washing isocratically for 30 min, the protease was eluted using a linear gradient of 0-0.45M sodium chloride in Buffer A over 40 min.. The column was washed isocratically in Buffer A containing 0.45M sodium chloride for 30 min.
# The active fractions were combined and concentrated to 200 μL using an Amicon stirred cell and a YM-10 membrane and then the protease was applied to a Superose 6 size exclusion column equilibrated in Buffer A containing 0.1M sodium chloride.
# The purified peptide was labeled with a fluorescent marker at the C-terminal end for use in the Pandex assay. N^α -Biotin-[…]OH (1.206 g, 0.936 mmol) was dissolved in 100 mL of 0.1M sodium borate, pH 9.5. Then, a solution of 3 g (7.7 mmol) of fluorescein isothiocyanate in 15 mL dimethyl sulfoxide was added to the reaction mixture in 10 equal portions over two hours. The resulting mixture was allowed to react for one hour after the final addition. The solution was adjusted to pH 3 using 5N HCl, resulting in the formation of a precipitate which was removed by centrifugation.
# The following buffers and solutions are used in the Fluorescence HIV-1 Protease Inhibitor Assay:
# 0.05M 4-morpholineethane sulfonic acid, pH 5.5
# 0.1% solution of Fluoricon Avidin Assay Particles (Avidin conjugated to solid polystyrene beads, 0.6-0.8 microns in diameter in TBSA Buffer
# 27 IU/mL of purified HIV-1 protease in MES-ALB buffer (1 IU equals the amount of enzyme required to hydrolyze 1 μmole of substrate per minute at 37° C.
# To each well of a round bottom, 96-well plate is added 20 μL of the Enzyme Solution followed by 10 μL of the compound to be evaluated in a 20% aqueous dimethylsulfoxide solution. Purified HIV-1 protease was obtained as described above.
row,Molecule,Fluorescence Assay IC50 [µg/mL]
1,"CC(C)(C)NC(=O)c1ccccc1C[C@@H](O)[C@H](Cc1ccccc1)NC(=O)[C@@H](CC(=O)OCc1ccccc1)NC(=O)OCc1ccccc1 (relative stereo) [Example 9, [2R-(2R *, 3S*, 6R*)]-N-t-Butyl-2-[2-hydroxy-3-phenylmethyl-4-aza-5-oxo-6-N(benzyloxycarbonyl)amino-7-benzyloxycarbonyl]heptyl benzamide]",> 1
2,"[2R-(2R*, 3S*, 6S*)]-N-t-Butyl-2-[2-hydroxy-3-phenylmethyl-4,7-diaza-5,8-dioxo-6-cyanomethyl-9-N(methyl)aza-10-quinolin-2-yl]decyl benzamide [Example 4]",0.0012

# Same assay, conditions: read-out: Fluorescence Assay IC8
row,Molecule,IC8 [µg/mL]
1,"CC(C)(C)NC(=O)c1ccccc1C[C@@H](O)[C@H](Cc1ccccc1)NC(=O)[C@@H](CC(=O)OCc1ccccc1)NC(=O)OC(C)(C)C [Example 11, [2R-(2R *, 3S*, 6S*)]-N-t-butyl-2-[2-hydroxy-3-phenylmethyl-4-aza-5-oxo-6-N(t-butoxycarbonyl)amino-7-benzyloxycarbonyl]heptyl benzamide]",1

# Same assay, conditions: read-out: Fluorescence Assay IC50 (converted)
row,IC50 [nM],Molecule
1,89.5,"CN1Cc2ccccc2CC1C(=O)N[C@@H](CC#N)C(=O)N[C@@H](Cc1ccccc1)[C@H](O)Cc1ccccc1C(=O)NC(C)(C)C (relative stereo) [Example 3, R-(2R *, 3S*, 6S*)-N-t-Butyl-2-[2-hydroxy-3-phenylmethyl-4,7-diaza-5,8-dioxo-6-cyanomethyl-8-(2-methyl-1,2,3,4-tetrahydroisoquinolin-3-yl]octylbenzamide]"
2,1.86,"CC(C)(C)NC(=O)c1ccccc1C[C@@H](O)[C@H](Cc1ccccc1)NC(=O)[C@H](CC#N)NC(=O)c1ccc2ccccc2n1 [Example 2, [2R-(2R *, 3S*, 6S*)]-N-t-Butyl-2-[2-hydroxy-3-phenylmethyl-4,7-diaza-5,8-dioxo-6-cyanomethyl-8-quinolin-2-yl]octyl benzamide]"
3,10.6,"CC(C)(C)NC(=O)c1ccccc1C[C@@H](O)[C@H](Cc1ccccc1)NC(=O)[C@H](CC(=O)OCc1ccccc1)NC(=O)OCc1ccccc1 [Example 6, [2R-(2R*, 3S*, 6S*)]-N-t-Butyl-2-[2-hydroxy-3-phenylmethyl-4-aza-5-oxo-6-N(benzyloxycarbonyl)amino-7-benzyloxycarbonyl]heptyl benzamide]"
4,0.856,"CC(C)(C)NC(=O)c1ccccc1C[C@@H](O)[C@H](Cc1ccccc1)NC(=O)[C@H](CC(=O)OCc1ccccc1)NC(=O)c1ccc2ccccc2n1 [Example 7, [2R-(2R*,3S*,6S*)]-N-t-Butyl-2-[2-hydroxy-3-phenylmethyl-4-aza-5-oxo-6-N(quinolin-2-ylcarbonyl)amino-7-benzyloxycarbony]heptyl benzamide]"
5,1.85,"CC(C)(C)NC(=O)c1ccccc1C[C@@H](O)[C@H](Cc1ccccc1)NC(=O)[C@H](CC(=O)OCc1ccccn1)NC(=O)c1ccc2ccccc2n1 [Example 10, [2R-(2R*,3S*,6S*)]-N-t-Butyl-2-[2-hydroxy-3-phenylmethyl-4-aza-5-oxo-6-N(quinolin-2-ylcarbonyl)amino-7-(pyrid-2-ylmethoxycarbonyl)]heptyl benzamide]"
6,0.782,"CONC(=O)C[C@H](NC(=O)c1ccc2ccccc2n1)C(=O)N[C@@H](Cc1ccccc1)[C@H](O)Cc1ccccc1C(=O)NC(C)(C)C [Example 12, [2R-(2R*, 3S*, 6S*)]-N-t-Butyl-2-[2-hydroxy-3-phenylmethyl-4-aza-5-oxo-6-N(quinolin-2-ylcarbonyl)amino-8-N(methoxy)carbamoyl]heptyl benzamide]"
7,4.18,"CC(C)(C)NC(=O)c1ccccc1C[C@@H](O)[C@H](Cc1ccccc1)NC(=O)[C@H](CS(N)(=O)=O)NC(=O)c1ccc2ccccc2n1 [Example 14, [2R-(2R*,3S*,6R*)]-N-t-Butyl-2-[2-hydroxy-3-phenylmethyl-4-aza-5-oxo-6-N(quinolin-2-ylcarbonyl)amino-7-aminosulfonyl]heptyl benzamide]"

# Continued, molecule first:
row,Molecule,IC50 [nM]
1,"CC(C)(C)NC(=O)c1ccccc1C[C@@H](O)[C@H](Cc1ccccc1)NC(=O)[C@H](CC#N)NC(=O)NCc1cccc2ccccc12 (relative stereo) [Example 1, [2R-(2R*, 3S*, 6S*)]-N-t-Butyl-2-[2-hydroxy-3-phenylmethyl-4,7,9-triaza-5,8-dioxo-6-cyanomethyl-10-naphth-1-yl]decyl benzamide]",0.645
2,"CN(C)CCNC(=O)C[C@H](NC(=O)c1ccc2ccccc2n1)C(=O)N[C@@H](Cc1ccccc1)[C@H](O)Cc1ccccc1C(=O)NC(C)(C)C (relative stereo) [Example 15, [2R -(2R*,3S*,6S*)]-N-t-Butyl-2-[2-hydroxy-3-phenylmethyl-4-aza-5,8-dioxo-6-N(quinolin-2-ylcarbonyl)amino-8-N(2-(N, N-dimethylamino)ethyl)amino]octyl benzamide]",2.79
3,"CC(C)(C)NC(=O)c1ccccc1C[C@@H](O)[C@H](Cc1ccccc1)NC(=O)[C@@H](CC(=O)OCc1ccccc1)NC(=O)c1ccc2ccccc2n1 [Example 8, [2R-(2R*,3S*,6R*)]-N-t-Butyl-2-[2-hydroxy-3-phenylmethyl-4-aza-5-oxo-6-N(quinolin-2-ylcarbonyl)amino-7-benzyloxycarbonyl]heptyl benzamide]",> 1430
4,"CC(C)(C)NC(=O)c1ccccc1C[C@@H](O)[C@H](Cc1ccccc1)NC(=O)[C@H](CC(=O)NN)NC(=O)c1ccc2ccccc2n1 [Example 13, [2R-(2R*, 3S*, 6S*)]-N-t-Butyl-2-[2-hydroxy-3-phenylmethyl-4-aza-5,8-dioxo-6-N(quinolin-2-ylcarbonyl)amino-8-hydrazino]octyl benzamide]",1.12
